Experimental findings from US10342796B2, “Acrylanilide derivative, preparation method, and applications thereof in pharmacy” (Ancureall Pharmaceutical (Shanghai) Co., Ltd., priority 2015, dated 2019) are described below.

Experiment in all cases: Growth inhibition GI50 in vitro (CCK8/MTT, 72 h)
What all share (assay type): cell-based, human

One assay relates to SK-BR-3 (Her2 amp). Conditions: Homo sapiens, SK-BR-3; HER2 positive cell line; range of GI50; read-out: GI50 SK-BR-3. The procedure:
Human lung adenocarcinoma cell line Calu-3 (ATCC) was cultured with 1×MEM complete medium (10% FBS, 1% double-antibiotics, 1% NEAA (Gibco), 2 mM glutamine and 1 mM of sodium pyruvate). Human breast cancer cell line SK-BR-3 was cultured with McCOY'S5A complete medium (10% FBS). Human colon cancer cell line SNU1040 (HER2 V777M positive) (ATCC) and human bronchoalveolar adenocarcinoma cell line NCI-H1781 (expressing HER2 exon 20 G776VC mutation) (ATCC) were cultured with 1×RPMI1640 complete medium (10% FBS), respectively.
The suspension cells were collected by centrifugation. The supernatant was discard and the cell pellet was resuspended and counted. Different cell concentrations (5˜10×10^4 cells/mL) were prepared according to the growth cycle of each cell line and then seeded on a 96-well plate (Corning), 100 μL/well. The cells were incubated over night at 37° C., 5% CO2. The compounds were added to the cells on the second day with 2 wells in parallel. The final concentration of organic solvent shall not exceed 1%. The cells were continually incubated for 72 h, and then subjected to MTT assay.
The present compounds and the reference compounds were dissolved with DMSO (Sigma), respectively. […] The storage concentration of compounds was 10 mM and kept at −20° C. They were diluted by 2 times or 10 times with serial dilution before using.
Dojindo CCK8 reagent kit was used as MTT assay. […] FC meter was used as microplate reader.
Adherent cell culture medium was discard and immediately replaced with fresh prepared medium which contains 10% CCK8 reagent (100 μL/well). For the suspension cells, CCK8 was directly added to 10% of the final concentration. The cells were continually incubated for 1˜4 h. When the color of control wells turned to dark yellow, the absorption value was measured at OD450 nm. The cell growth rate was calculated according to the following formula: cell growth rate (%)=100*(T−T0)/(C−T0), T=optical density of drug treatment cell well—optical density of blank control well; T0=optical density of cell well before drug treatment—optical density of blank control well; C=optical density of cell well of solvent control group—optical density of blank control well. […] The experiment was independently repeated 1˜3 times, and subject to biological statistical analysis.

The subject of assay [1] is PC-9ER (EGFR delE746-A750/T790M). Conditions: Homo sapiens, PC-9/ER; EGFR mutant cell line; range of GI50; read-out: GI50 PC9ER.
In another assay the test system is HCC827 (EGFR dE746-A750). Conditions: Homo sapiens, HCC827; EGFR mutant cell line; range of GI50; read-out: GI50 HCC827.
A further assay concerns PC-9 (EGFR dE746-A750). As to conditions: Homo sapiens; EGFR mutant cell line; range of GI50; read-out: GI50 PC-9.
The test system of another assay is H1975 (EGFR L858R/T790M). As to conditions: Homo sapiens, NCI-H1975; EGFR mutant cell line; range of GI50; read-out: GI50 H1975.
The test system of assay [2] is A431 (EGFR WT, amplification and high expression). As to conditions: Homo sapiens, A-431; EGFR wild type cell line; range of GI50; read-out: GI50 A431.
In assay [3] the test system is H1299 (EGFR wt, Nras Q61K). Conditions: Homo sapiens, NCI-H1299; EGFR wild type cell line; range of GI50; read-out: GI50 H1299.
The subject of another assay is A549 (EGFR WT). As to conditions: Homo sapiens, A549; EGFR wild type cell line; range of GI50; read-out: GI50 A549.
In assay [4] the test system is H460 (EGFR wt, Kras G61H). As to conditions: Homo sapiens, NCI-H460; EGFR wild type cell line; range of GI50; read-out: GI50 H460.
The next assay has as its system N87 (HER2 Amp). As to conditions: Homo sapiens; HER2 positive cell line; range of GI50; read-out: GI50 N87.
The next assay deals with AU565 (Her2 amp). Conditions: Homo sapiens, AU565; HER2 positive cell line; range of GI50; read-out: GI50 AU-565.

Usually GI50 stands for the concentration at which growth is held to half of that of the control. Consider `C=CC(=O)Nc1cc(Nc2cc(-c3cn(C4CCCC4)c4ccc(F)cc34)ncn2)c(OC)cc1N(C)CCN(C)C` [Compound 193, N-(5-(6-(5-fluoro-1-cyclopentyl-1H-indol-3-yl)-pyrimidin-4-ylamino)-4-methoxyl-2-((2-dimethylamino-ethyl)-methyl-amino)-phenyl)-acrylamide], for which the GI50 in the assay on SK-BR-3 (Her2 amp) is more than 1000 nM; in [1] it was 10 to 100 nM; in the assay on HCC827 (EGFR dE746-A750) it was less than 10 nM; in the assay on PC-9 (EGFR dE746-A750), less than 10 nM; in the assay on H1975 (EGFR L858R/T790M) it was 10 to 100 nM; in assay [2] it was more than 1000 nM. In addition, the GI50 in assay [3] was more than 1000 nM; in the assay on A549 (EGFR WT), more than 1000 nM; in assay [4] it was more than 1000 nM; with N87 (HER2 Amp) it was 100 to 1000 nM; in the assay on AU565 (Her2 amp) it was 100 to 1000 nM.

As to `C=CC(=O)Nc1cc(Nc2nccc(-n3ccc4cc(F)c(F)cc43)n2)c(OC)cc1N(C)CCN(C)C` [Compound 103, N-(5-(4-(5,6-difluoro-1H-indol-1-yl)-pyrimidin-2-ylamino)-2-(2-(dimethylamino-ethyl)-methyl-amino)-4-methoxyl-phenyl)-acrylamide], the GI50 with SK-BR-3 (Her2 amp) fell in the range of 100 to 1000 nM; in assay [1], 10 to 100 nM; with HCC827 (EGFR dE746-A750) it was 10 to 100 nM; in the assay on PC-9 (EGFR dE746-A750) it was 10 to 100 nM; in the assay with H1975 (EGFR L858R/T790M), 10 to 100 nM; in assay [2], 100 to 1000 nM. The GI50 in assay [3] is more than 1000 nM; with A549 (EGFR WT), more than 1000 nM; in assay [4] it was more than 1000 nM; in the assay on N87 (HER2 Amp) it was 10 to 100 nM; in the assay with AU565 (Her2 amp) it was 100 to 1000 nM.

Consider `C#Cc1cccc(Nc2cc(Nc3cc(NC(=O)C=C)c(N(C)CCN(C)C)cc3OC)ncn2)c1` [Compound 135, N-(5-(6-(3-alkynyl-phenylamino)-pyrimidin-4-ylamino)-2-((2-dimethylamino-ethyl)-methyl-amino)-4-methoxyl-phenyl)-acrylamide], for which the GI50 is less than 10 nM with SK-BR-3 (Her2 amp); less than 10 nM in assay [1]; less than 10 nM in the assay on HCC827 (EGFR dE746-A750); less than 10 nM in the assay on PC-9 (EGFR dE746-A750); less than 10 nM with H1975 (EGFR L858R/T790M); 10 to 100 nM in [2]. In addition, the GI50 in [3] was more than 1000 nM; in the assay on A549 (EGFR WT) it was more than 1000 nM; in [4], more than 1000 nM; in the assay with N87 (HER2 Amp) it was 10 to 100 nM; in the assay with AU565 (Her2 amp), less than 10 nM.

Turning to `C=CC(=O)Nc1cc(Nc2nccc(Nc3ccc(F)c(Cl)c3)n2)c(OC)cc1N(C)CCN(C)C` [Compound 13, N-(5-(4-(3-chloro-4-fluorophenyl-amino)-pyrimidin-2-ylamino)-2-(2-(dimethylamino-ethyl)-methyl-amino)-4-methoxyl-phenyl)-acrylamide], the GI50 in the assay with SK-BR-3 (Her2 amp) fell in the range of 10 to 100 nM; in [1], 10 to 100 nM; in the assay on HCC827 (EGFR dE746-A750), 10 to 100 nM; with PC-9 (EGFR dE746-A750), 10 to 100 nM; in the assay with H1975 (EGFR L858R/T790M), 10 to 100 nM; in assay [2], 100 to 1000 nM. Moreover, the GI50 in assay [3] is more than 1000 nM; with A549 (EGFR WT), more than 1000 nM; in assay [4], more than 1000 nM; with N87 (HER2 Amp) it was 10 to 100 nM; with AU565 (Her2 amp) it was 10 to 100 nM.

Regarding `C=CC(=O)Nc1cc(Nc2nccc(Nc3cccc(Br)c3)n2)c(OC)cc1N(C)CCN(C)C` [Compound 1, N-(5-(4-(3-bromophenylamino)-pyrimidin-2-ylamino)-2-(2-(dimethylamino-ethyl)-methyl-amino)-4-methoxyl-phenyl)-acrylamide], the GI50 in the assay on SK-BR-3 (Her2 amp) is 10 to 100 nM; in [1], 10 to 100 nM; in the assay on HCC827 (EGFR dE746-A750), less than 10 nM; with PC-9 (EGFR dE746-A750) it was 10 to 100 nM; in the assay on H1975 (EGFR L858R/T790M), 10 to 100 nM; in assay [2], 100 to 1000 nM. Further, the GI50 in assay [3] was more than 1000 nM; in the assay with A549 (EGFR WT), more than 1000 nM; in assay [4], more than 1000 nM; in the assay with N87 (HER2 Amp), 10 to 100 nM; in the assay on AU565 (Her2 amp) it was 10 to 100 nM.

Regarding `C=CC(=O)Nc1cc(Nc2cc(Nc3cccc(C(F)(F)F)c3)ncn2)c(OC)cc1N(C)CCN(C)C` [Compound 134], the GI50 in the assay on SK-BR-3 (Her2 amp) is 10 to 100 nM; in assay [1] it was 10 to 100 nM; with HCC827 (EGFR dE746-A750) it was less than 10 nM; in the assay with PC-9 (EGFR dE746-A750) it was less than 10 nM; with H1975 (EGFR L858R/T790M), 10 to 100 nM; in assay [2], 100 to 1000 nM. Also, the GI50 in assay [3] is more than 1000 nM; with A549 (EGFR WT), more than 1000 nM; in assay [4] it was more than 1000 nM; with N87 (HER2 Amp), 10 to 100 nM; in the assay with AU565 (Her2 amp), 10 to 100 nM.

Turning to `C=CC(=O)Nc1cc(Nc2ncnc(Nc3ccc(F)c(Cl)c3)n2)c(OC)cc1N(C)CCN(C)C` [Compound 109, N-(5-(4-(3-chloro-4-fluoro-phenylamino)-[1,3,5]triazin-2-ylamino)-2-((2-dimethylamino-ethyl)-methyl-amino)-4-methoxyl-phenyl)-acrylamide], the GI50 in the assay on SK-BR-3 (Her2 amp) lay within 10 to 100 nM; in assay [1] it was 10 to 100 nM; in the assay on HCC827 (EGFR dE746-A750), 10 to 100 nM; in the assay with PC-9 (EGFR dE746-A750) it was 10 to 100 nM; in the assay with H1975 (EGFR L858R/T790M), 10 to 100 nM; in assay [2] it was 100 to 1000 nM. Besides, the 50% growth inhibitory concentration (GI50) in assay [3] is more than 1000 nM; in the assay with A549 (EGFR WT), more than 1000 nM; in assay [4], more than 1000 nM; with N87 (HER2 Amp) it was 10 to 100 nM; in the assay on AU565 (Her2 amp), 10 to 100 nM.

As for `C=CC(=O)Nc1cc(Nc2nccc(-n3ccc4c(C)cccc43)n2)c(OC)cc1N(C)CCN(C)C` [Compound 98, N-(5-(4-(4-methyl-1H-indol-1-yl)-pyrimidin-2-ylamino)-2-(2-(dimethylamino-ethyl)-methyl-amino)-4-methoxyl-phenyl)-acrylamide], the GI50 in the assay with SK-BR-3 (Her2 amp) lay in the range of 10 to 100 nM; in [1], 10 to 100 nM; with HCC827 (EGFR dE746-A750), 10 to 100 nM; in the assay with PC-9 (EGFR dE746-A750) it was 10 to 100 nM; in the assay with H1975 (EGFR L858R/T790M), 10 to 100 nM; in [2], 100 to 1000 nM. Also, the GI50 in assay [3] was more than 1000 nM; with A549 (EGFR WT), more than 1000 nM; in [4], more than 1000 nM; with N87 (HER2 Amp), 10 to 100 nM; with AU565 (Her2 amp), 100 to 1000 nM.

In the case of `C=CC(=O)Nc1cc(Nc2nccc(-n3ccc4ccc(Br)cc43)n2)c(OC)cc1N(C)CCN(C)C` [Compound 62, N-(5-(4-(6-bromo-1H-indol-1-yl)-pyrimidin-2-ylamino)-2-((2-(dimethylamino)ethyl)-methyl-amino)-4-methoxyl-phenyl)-acrylamide], the GI50 in the assay with SK-BR-3 (Her2 amp) was 10 to 100 nM; in [1], 10 to 100 nM; with HCC827 (EGFR dE746-A750), less than 10 nM; in the assay with PC-9 (EGFR dE746-A750), 10 to 100 nM; in the assay on H1975 (EGFR L858R/T790M) it was 10 to 100 nM; in assay [2], 100 to 1000 nM. The concentration for 50% growth inhibition (GI50) in [3] is more than 1000 nM; in the assay with A549 (EGFR WT), more than 1000 nM; in assay [4] it was more than 1000 nM; in the assay on N87 (HER2 Amp), 10 to 100 nM; with AU565 (Her2 amp), 10 to 100 nM.

In the case of `C=CC(=O)Nc1cc(Nc2cc(Nc3ccc(F)c(Cl)c3)ncn2)c(OC)cc1OCCN1CCN(C)CC1` [Compound 150, N-(5-(6-(3-chloro-4-fluoro-phenylamino)-pyrimidin-4-ylamino)-2-(2-(4-methyl-piperazin-lyl)-ethoxyl)-4-methoxyl-phenyl)-acrylamide], the GI50 is less than 10 nM in the assay on SK-BR-3 (Her2 amp); less than 10 nM in [1]; less than 10 nM in the assay with HCC827 (EGFR dE746-A750); less than 10 nM with PC-9 (EGFR dE746-A750); less than 10 nM with H1975 (EGFR L858R/T790M); 10 to 100 nM in assay [2]. In addition, the GI50 in assay [3] was more than 1000 nM; in the assay on A549 (EGFR WT), more than 1000 nM; in assay [4], more than 1000 nM; in the assay on N87 (HER2 Amp), 10 to 100 nM; in the assay with AU565 (Her2 amp), 10 to 100 nM.
